Patent publication US8906929B2, “Inhibitors of human immunodeficiency virus replication” (priority 2012, dated 2014)
pEC50: −log10 of the molar value.

Test system: recombinant NL-Rluc virus
Experiment: Inhibition of HIV replication (NL-RLuc virus in MT-2 cells, luciferase readout)
Type: cell-based
Conditions: 5 days of incubation, 10% FBS

SMILES	pEC50
Cc1nc2cc3nn2c(c1[C@H](OC(C)(C)C)C(=O)O)-c1ccc2c(c1)C(CCCCCc1ccccc1-c1cccc-3c1)CCO2 (single isomer, unassigned) [Example 8]	7.29
Cc1nc2cc3nn2c(c1[C@H](OC(C)(C)C)C(=O)O)-c1ccc2c(c1)C(CCCCCc1ccccc1-c1cccc-3c1)CCO2 (single isomer, unassigned) [Example 9]	5.43
Cc1nc2cc3nn2c(c1[C@H](OC(C)(C)C)C(=O)O)-c1ccc2c(c1)C(CCCCc1ccccc1-c1cccc-3c1)CCO2 (single isomer, unassigned) [Example 10]	6.63
Cc1nc2cc3nn2c(c1[C@H](OC(C)(C)C)C(=O)O)-c1ccc2c(c1)C(CCCCc1ccccc1-c1cccc-3c1)CCO2 (single isomer, unassigned) [Example 11]	5.90
Cc1ccc2c(c1)-c1cccc(c1)-c1cc3nc(C)c([C@H](OC(C)(C)C)C(=O)O)c(n3n1)N1CCC(C)(CC1)OCCCC(C)C(C)O2 (single isomer, unassigned) [Example 92]	6.01
Cc1ccc2c(c1)-c1cccc(c1)-c1cc3nc(C)c([C@H](OC(C)(C)C)C(=O)O)c(n3n1)N1CCC(C)(CC1)OCCCC(C)C(C)O2 (single isomer, unassigned) [Example 93]	7.02
Cc1ccc2c(c1)-c1cccc(c1)-c1cc3nc(C)c([C@H](OC(C)(C)C)C(=O)O)c(n3n1)N1CCC(C)(CC1)OCCCC(C)C(C)O2 (single isomer, unassigned) [Example 94]	7.46
Cc1ccc2c(c1)-c1cccc(c1)-c1cc3nc(C)c([C@H](OC(C)(C)C)C(=O)O)c(n3n1)N1CCC(C)(CC1)OCCCC(C)C(C)O2 (single isomer, unassigned) [Example 95]	7.44
Cc1ccc2c(c1)-c1cccc(c1)-c1cc3nc(C)c([C@H](OC(C)(C)C)C(=O)O)c(n3n1)N1CCC(C)(CC1)OCCCC(C)CO2 (single isomer, unassigned) [Example 104]	7.59

Same assay, conditions: Human immunodeficiency virus 1, MT2, 120 h, 5 days of incubation, 10% FBS

SMILES	pEC50
Cc1nc2cc3nn2c(c1[C@H](OC(C)(C)C)C(=O)O)-c1ccc2c(c1)[C@H](CCCCOc1ccccc1-c1cccc-3c1)CCO2 (single isomer, unassigned) [Example 12]	8.15
Cc1nc2cc3nn2c(c1[C@H](OC(C)(C)C)C(=O)O)-c1ccc2c(c1)[C@@H](CCCCOc1ccccc1-c1cccc-3c1)CCO2 (single isomer, unassigned) [Example 13]	6.67
Cc1nc2cc3nn2c(c1[C@H](OC(C)(C)C)C(=O)O)-c1ccc2c(c1)[C@@H](CC=CCOc1ccccc1-c1cccc-3c1)CCO2 (single isomer, unassigned) [Example 14]	6.42
Cc1nc2cc3nn2c(c1[C@H](OC(C)(C)C)C(=O)O)-c1ccc2c(c1)[C@H](CC=CCOc1ccccc1-c1cccc-3c1)CCO2 (single isomer, unassigned) [Example 15]	8.40
Cc1nc2cc3nn2c(c1[C@H](OC(C)(C)C)C(=O)O)N1CCC(C)(CC1)OCC=C[C@@H](C)Oc1ccccc1-c1cccc-3c1 (single isomer, unassigned) [Example 22]	7.44
Cc1ccc2c(c1)-c1cccc(c1)-c1cc3nc(C)c([C@H](OC(C)(C)C)C(=O)O)c(n3n1)N1CCC(C)(CC1)OCCCC(C)CO2 (single isomer, unassigned) [Example 103]	7.60
Cc1nc2cc3nn2c(c1[C@H](OC(C)(C)C)C(=O)O)-c1ccc2c(c1Cl)N(C/C=C\CCc1cccc(c1)-c1cccc-3c1)CCO2 [Example 1, (2S)-2-(tert-Butoxy)-2-[(22Z)-32-chloro-4-methyl-28-oxa-5,7,8,25-tetraazaheptacyclo[23.6.2.1^6,^9.1^10,^14.1^15,^19.0^2,^7.0^29,^33]hexatriaconta-1(31),2,4,6(36),8,10(35), 11,13,15(34), 16,18,22,29,32-tetradecaen-3-yl]acetic acid]	6.07
Cc1nc2cc3nn2c(c1[C@H](OC(C)(C)C)C(=O)O)-c1ccc2c(c1Cl)N(C/C=C/CCc1cccc(c1)-c1cccc-3c1)CCO2 [Example 2, (2S)-2-(tert-Butoxy)-2-[(22E)-32-chloro-4-methyl-28-oxa-5,7,8,25-tetraazaheptacyclo[23.6.2.1^6,^9.1^10,^14.1^15,^19.0^2,^7.0^29,^33]hexatriaconta-1 (31), 2,4,6(36),8,10(35), 11, 13, 15(34), 16,18,22,29,32-tetradecaen-3-yl]acetic acid]	6.14
Cc1nc2cc3nn2c(c1[C@H](OC(C)(C)C)C(=O)O)-c1ccc2c(c1Cl)N(CCCCOc1cccc(c1)-c1cccc-3c1)CCO2 [Example 3, (2S)-2-(tert-Butoxy)-2-{32-chloro-4-methyl-20,28-dioxa-5,7,8,25-tetraazaheptacyclo[23.6.2.1^6,^9.1^10,^14.1^15,^19.0^2,^7.0^29,^33]hexatriaconta-1(31), 2,4, 6(36), 8, 10(35), 11, 13, 15 (34), 16,18,29,32-tridecaen-3-yl}acetic acid]	6.38
Cc1nc2cc3nn2c(c1[C@H](OC(C)(C)C)C(=O)O)-c1ccc2c(c1Cl)N(CC=CCCc1ccccc1-c1cccc-3c1)CCO2 [Example 4]	6.90
Cc1nc2cc3nn2c(c1[C@H](OC(C)(C)C)C(=O)O)-c1ccc2c(c1Cl)N(CCCCCCOc1ccccc1-c1cccc-3c1)CCO2 [Example 5, (2S)-2-(tert-Butoxy)-2-{35-chloro-4-methyl-21,31-dioxa-5,7,8,28-tetraazaheptacyclo[26.6.2.1^6,^9.1^10,^14.0^2,^7.0^15,^200^32,36]octatriaconta-1(34),2,4,6(38),8,10(37), 11, 13, 15 (20), 16,18,32,35-tridecaen-3-yl}acetic acid]	7.52
Cc1nc2cc3nn2c(c1[C@H](OC(C)(C)C)C(=O)O)-c1cc2c(cc1F)OCCN2CCCCCc1ccccc1-c1cccc-3c1 [Example 6, (2S)-2-(tert-Butoxy)-2-{32-fluoro-4-methyl-29-oxa-5,7,8,26-tetraazaheptacyclo[24.6.2.1^6,^9.1^10,^14.0^2,^7.0^15,^20.0^30,^34]hexatriaconta-1(32),2,4,6(36),8,10(35), 11, 13, 15(20), 16,18,30,33-tridecaen-3-yl}acetic acid]	7.27
Cc1cc2c3cc1-c1c([C@H](OC(C)(C)C)C(=O)O)c(C)nc4cc(nn14)-c1cccc(c1)-c1ccccc1CCCCCN3CCO2 [Example 7, (2S)-2-(tert-Butoxy)-2-{4,32-dimethyl-29-oxa-5,7,8,26-tetraazaheptacyclo[24.6.2.1^6,^9.1^10,^14.0^2,^7.0^15,^200^30,^34]hexatriaconta-1(32), 2,4,6(36),8,10(35), 11, 13, 15(20), 16,18,30,33-tridecaen-3-yl}acetic acid]	5.45
Cc1nc2cc3nn2c(c1[C@H](OC(C)(C)C)C(=O)O)-c1cc(F)c2c(c1)N(CCCCCc1ccccc1-c1cccc-3c1)CCO2 [Example 16, (2S)-2-(tert-Butoxy)-2-{31-fluoro-4-methyl-29-oxa-5,7,8,26-tetraazaheptacyclo[24.6.2.1^6,^9.1^10,^14.0^2,^7.0^15,^20.0^30,^34]hexatriaconta-1(32),2,4,6(36),8,10(35), 11, 13, 15(20),16,18,30,33-tridecaen-3-yl}acetic acid]	6.75
Cc1nc2cc3nn2c(c1[C@H](OC(C)(C)C)C(=O)O)-c1ccc2c(c1Cl)N(CCCCCc1ccccc1-c1cccc-3c1)CCO2 [Example 17, (2S)-2-(tert-Butoxy)-2-{33-chloro-4-methyl-29-oxa-5,7,8,26-tetraazaheptacyclo[24.6.2.1^6,^9.1^10,^14.0^2,^7.0^15,^20.0^30,^34]hexatriaconta-1(32),2,4,6(36),8,10(35), 11,13,15(20),16,18,30,33-tridecaen-3-yl}acetic acid]	6.84
Cc1nc2cc3nn2c(c1[C@H](OC(C)(C)C)C(=O)O)N1CCC(C)(CC1)OCC=CCCc1ccccc1-c1cccc-3c1 [Example 18, (2S)-2-(tert-Butoxy)-2-[4,27-dimethyl-26-oxa-1,5,7,8-tetraazahexacyclo[25.2.2.1^6,^9.1^10,^14.0^2,^7.0^15,^20]tritriaconta-2,4,6(33),8,10(32),11,13,15(20),16,18,23-undecaen-3-yl]acetic acid]	7.80
Cc1nc2cc3nn2c(c1[C@H](OC(C)(C)C)C(=O)O)N1CCC(C)(CC1)OCCCCCc1ccccc1-c1cccc-3c1 [Example 19, (2S)-2-(tert-Butoxy)-2-{4,27-dimethyl-26-oxa-1,5,7,8-tetraazahexacyclo[25.2.2.1^6,^9.1^10,^14. 0^2,^7. 0^15,^20]-tritriaconta-2,4,6(33),8,10(32),11,13,15(20),16,18-decaen-3-yl}acetic acid]	7.68
Cc1nc2cc3nn2c(c1[C@H](OC(C)(C)C)C(=O)O)N1CCC(C)(CC1)OC/C=C/COc1ccccc1-c1cccc-3c1 [Example 20, (2S)-2-(tert-Butoxy)-2-[(23E)-4,27-dimethyl-21,26-dioxa-1,5,7,8-tetraazahexacyclo[25.2.2.1^6,^9.1^10,^14.0^2,^7.0^15,^20]tritriaconta-2,4,6(33),8,10(32),11,13,15(20),16,18,23-undecaen-3-yl]acetic acid]	8.30
Cc1nc2cc3nn2c(c1[C@H](OC(C)(C)C)C(=O)O)N1CCC(C)(CC1)OCCCCOc1ccccc1-c1cccc-3c1 [Example 21, (2S)-2-(tert-Butoxy)-2-{4,27-dimethyl-21,26-dioxa-1,5,7,8-tetraazahexacyclo[25.2.2.1^6,^9.1^10,^14.0^2,^7.0^15,^20]-tritriaconta-2,4, 6(33), 8, 10(32), 11, 13, 15(20),16,18-decaen-3-yl}acetic acid]	8.15
Cc1nc2cc3nn2c(c1[C@H](OC(C)(C)C)C(=O)O)N1CCC(C)(CC1)OCC=C[C@H](C)Oc1ccccc1-c1cccc-3c1 [Example 23, (2S)-2-(tert-Butoxy)-2-[(22S)-4,22,27-trimethyl-21,26-dioxa-1,5,7,8-tetraazahexacyclo[25.2.2.1^6,^9.1^10,^14.0^2,^7.0^15,^20]tritriaconta-2,4,6(33),8,10(32),11,13,15(20),16,18,23-undecaen-3-yl]acetic acid]	7.96
